In patent US20160324836A1, “INJECTABLE DEPOT FORMULATIONS” (pSivida US.Inc., priority 2015, published 2016) one finds solubility data, which are given here for one compound.

Converted amounts (≈) assume the structure as drawn.

A short description of this series: Solubility in ethanol. The series is classed as physicochemical. Conditions: organic solvent or mixture. How it is done: In preferred embodiments, the solvent is ethanol. […] Similarly, preferred kinase inhibitors, such as apatinib, axitinib, cabozantinib, cediranib, crenolanib, foretinib, lenvatinib, linifanib, masitinib, motesanib, nintedanib, pazopanib, pegaptanib, regorafenib, semaxanib, sorafenib, sunitinib, tivozanib, toceranib, vandetanib, vatalanib, bafetinib, bosutinib, dasatinib, imatinib, nilotinib, ponatinib, radotinib, and SU6656, are generally soluble in ethanol, e.g., at 1.0 mg/mL or higher.

In the case of `CNC(=O)c1cc(Oc2ccc(NC(=O)Nc3ccc(Cl)c(C(F)(F)F)c3)cc2)ccn1` [sorafenib], the solubility (in general, the concentration that dissolves in the medium under given conditions) was roughly 3300 µg/mL (≈ 7.1 mM).
